Source: patent US5213978A, “Protease from Micrococcus sedentarius for degrading protein of human callus or corn tissue” (Scholl Plc, priority 1990, dated 1993)

Test system: Micrococcus sedentarius NCIMB 40287
Assay: Antibiotic sensitivities by the disc method
Format: cell-based
Details: disc amount as printed per antibiotic (1 unit, 5-30 μg)

Compound	Antibiotic sensitivity
Neomycin	S
CN[C@H](CC(C)C)C(=O)N[C@H]1C(=O)N[C@@H](CC(N)=O)C(=O)N[C@H]2C(=O)N[C@H]3C(=O)N[C@H](C(=O)N[C@H](C(=O)O)c4cc(O)cc(O)c4-c4cc3ccc4O)[C@H](O)c3ccc(c(Cl)c3)Oc3cc2cc(c3O[C@@H]2O[C@H](CO)[C@@H](O)[C@H](O)[C@H]2O[C@H]2C[C@](C)(N)[C@H](O)[C@H](C)O2)Oc2ccc(cc2Cl)[C@H]1O [Vanomycin]	S
